These are literature values, as cited in patent US11033509B2 (BIOGEN MA INC., priority 2016, dated 2021).

Each structure is given as a SMILES string. Where a name gives a salt, the structure may show the parent alone.

For the data set the following is noted: DMF absorbed in vivo and converted to MMF.

Consider `COC(=O)/C=C/C(=O)O` [MMF, monomethyl fumarate], for which the “half-life of MMF” value was “approximately 1 hour”.
